Source: patent publication US20260217708A1, “FUSED BENZAZEPINE DERIVATIVES FOR USE IN THE TREATMENT OF CANCER AND EPILEPSY” (UCB BIOPHARMA SRL, priority 2023, published 2026)

How the values were obtained:
system Xc^− [1] = molecular target: T1, system Xc^− (Homo sapiens, UniProt Q9UPY5); assay: [^14C]L-Cystine uptake assay; assay type: cell-based; set-up: endogenous in cells; host or cells: H4 cells; settings: H4 cells, sodium-free HEPES buffer, 0.5 μM L-[14C]Cystine and 4.5 μM L-Cystine, 1 hour at 37° C.; read-out: pIC50 [^14C] L-Cystine uptake assay (converted)
T1 sequence (Q9UPY5 1-501): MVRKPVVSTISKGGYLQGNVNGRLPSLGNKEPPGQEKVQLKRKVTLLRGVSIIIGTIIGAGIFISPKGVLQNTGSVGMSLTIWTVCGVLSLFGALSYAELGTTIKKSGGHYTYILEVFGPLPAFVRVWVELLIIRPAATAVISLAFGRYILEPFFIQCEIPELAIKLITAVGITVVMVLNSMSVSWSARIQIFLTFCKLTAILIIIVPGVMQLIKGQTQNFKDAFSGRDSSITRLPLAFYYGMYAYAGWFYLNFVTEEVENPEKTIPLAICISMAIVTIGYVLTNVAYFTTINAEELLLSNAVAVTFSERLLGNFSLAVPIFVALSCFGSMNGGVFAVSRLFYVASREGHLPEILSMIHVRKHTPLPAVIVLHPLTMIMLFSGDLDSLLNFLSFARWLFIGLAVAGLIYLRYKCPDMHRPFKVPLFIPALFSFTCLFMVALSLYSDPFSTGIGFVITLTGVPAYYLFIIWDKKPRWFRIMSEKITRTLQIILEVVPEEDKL
T1 sequence (P08195 1-529 partner): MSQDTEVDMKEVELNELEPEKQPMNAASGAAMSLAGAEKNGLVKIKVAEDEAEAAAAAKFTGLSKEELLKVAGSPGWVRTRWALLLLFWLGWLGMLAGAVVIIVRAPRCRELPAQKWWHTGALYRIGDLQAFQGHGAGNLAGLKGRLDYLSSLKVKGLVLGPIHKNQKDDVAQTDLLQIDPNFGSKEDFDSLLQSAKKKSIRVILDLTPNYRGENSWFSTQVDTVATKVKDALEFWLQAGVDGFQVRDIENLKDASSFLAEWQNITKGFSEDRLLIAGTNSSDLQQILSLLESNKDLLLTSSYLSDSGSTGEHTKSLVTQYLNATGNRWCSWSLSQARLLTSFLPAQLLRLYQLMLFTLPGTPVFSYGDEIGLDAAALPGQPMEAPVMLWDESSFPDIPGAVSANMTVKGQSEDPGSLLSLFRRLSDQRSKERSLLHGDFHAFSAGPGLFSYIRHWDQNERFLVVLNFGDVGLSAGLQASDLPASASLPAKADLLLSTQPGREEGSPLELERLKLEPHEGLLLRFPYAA
How it was run: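 Compound effect is given as pIC50, taken between controls of 1% DMSO and 50 μM Erastin. Human H4 cells were pretreated 15 min with compound in sodium-free buffer, then took up 0.5 μM [14C]cystine with 4.5 μM cold cystine for 1 hour at 37° C, read by scintillation proximity counting.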

system Xc^− [2] = molecular target: T1, system Xc^−; assay: Cystine-induced glutamate release assay; assay type: cell-based; set-up: endogenous in cells; host or cells: H4 cells; settings: H4 cells, sodium-free HEPES buffer, 50 μM L-Cystine, 2 hours, Amplex Red glutamate readout; read-out: pIC50 Cystine-induced glutamate release assay (converted)
How it was run: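 IC50 (reported as pIC50) normalized to DMSO 1% and Erastin 50 μM controls, from Amplex Red fluorescence of glutamate exported into supernatant. H4 cells were washed into sodium-free buffer to exclude EAAT transport, then given compound with 50 μM L-cystine for 2 h in the incubator.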

CC(=O)OCc1cc2c(cn1)-c1ccccc1CC(=O)N2CC(=O)Nc1ccc(C(F)(F)F)cc1 [#59, [6-oxo-5-[2-oxo-2-[4-(trifluoromethyl)anilino]ethyl]-7H-pyrido[4,3-d][3]benzazepin-3-yl]methyl acetate]
IC50 (system Xc^− [1]): 100 to 501 nM | IC50 (system Xc^− [2]): 100 to 501 nM

O=C(CN1C(=O)Cc2ccccc2-c2cnc(CO)cc21)Nc1ccc(C(F)(F)F)cc1 [#60, 2-[3-(hydroxymethyl)-6-oxo-7H-pyrido[4,3-d][3]benzazepin-5-yl]-N-[4-(trifluoromethyl)phenyl]acetamide]
IC50 (system Xc^− [1]): 100 to 501 nM | IC50 (system Xc^− [2]): 100 to 501 nM

Cc1cc2c(c(C#N)n1)-c1ccccc1CC(=O)N2CC(=O)Nc1ccc(C(F)(F)F)cc1 [#61, 2-(1-cyano-3-methyl-6-oxo-7H-pyrido[4,3-d][3]benzazepin-5-yl)-N-[4-(trifluoromethyl)phenyl]acetamide]
IC50 (system Xc^− [1]): < 15.8 nM | IC50 (system Xc^− [2]): 15.8 to 39.8 nM

Cc1cc2c(c(C)n1)-c1ccc(Cl)cc1CC(=O)N2CC(=O)Nc1ccc(C(F)(F)F)cc1 [#62, 2-(9-chloro-1,3-dimethyl-6-oxo-7H-pyrido[4,3-d][3]benzazepin-5-yl)-N-[4-(trifluoromethyl)phenyl]acetamide]
IC50 (system Xc^− [1]): < 15.8 nM | IC50 (system Xc^− [2]): 15.8 to 39.8 nM

Cc1cc2c(c(C)n1)-c1cc(F)ccc1CC(=O)N2CC(=O)Nc1ccc(C(F)(F)F)cc1 [#63, 2-(10-fluoro-1,3-dimeth-yl-6-oxo-7H-pyrido[4,3-d][3]benzazepin-5-yl)-N-[4-(trifluoromethyl)-phenyl]acetamide]
IC50 (system Xc^− [1]): < 15.8 nM | IC50 (system Xc^− [2]): 15.8 to 39.8 nM

Cc1cc2c(c(C)n1)-c1cccc(F)c1CC(=O)N2CC(=O)Nc1ccc(C(F)(F)F)cc1 [#64, 2-(8-fluoro-1,3-dimeth-yl-6-oxo-7H-pyrido [4,3-d][3]benzazepin-5-yl)-N-[4-(trifluorometh-yl)phenyl]acetamide]
IC50 (system Xc^− [1]): < 15.8 nM | IC50 (system Xc^− [2]): 15.8 to 39.8 nM

Cc1cc2c(c(C)n1)-c1ccc(F)cc1CC(=O)N2CC(=O)Nc1ccc(C(F)(F)F)cc1 [#65, 2-(9-fluoro-1,3-dimeth-yl-6-oxo-7H-pyrido[4,3-d][3]benzazepin-5-yl)-N-[4-(trifluorometh-yl)phenyl]acetamide]
IC50 (system Xc^− [1]): < 15.8 nM | IC50 (system Xc^− [2]): 15.8 to 39.8 nM

Cc1cc2c(c(CO)n1)-c1ccccc1CC(=O)N2CC(=O)Nc1ccc(C(F)(F)F)cc1 [#66, 2-[1-(hydroxymethyl)-3-methyl-6-oxo-7H-pyrido[4,3-d][3]benz-azepin-5-yl]-N-[4-(trifluoromethyl)phen-yl]acetamide]
IC50 (system Xc^− [1]): 39.8 to 100 nM | IC50 (system Xc^− [2]): 100 to 501 nM

COc1ncc2c(c1C)-c1cccnc1CC(=O)N2CC(=O)Nc1ccc(C(F)(F)F)cc1 [#67, 2-(4-methoxy-3-meth-yl-9-oxo-5,8,12-triaza-tricyclo[9.4.0.0^2,7]pentadeca-1(11),2(7), 3,5,12,14-hexaen-8-yl)-N-[4-(trifluoromethyl)-phenyl]acetamide]
IC50 (system Xc^− [1]): 100 to 501 nM | IC50 (system Xc^− [2]): 39.8 to 100 nM

N#Cc1c(F)ccc2c1-c1cccnc1CC(=O)N2CC(=O)Nc1ccc(C(F)(F)F)cc1 [#68, 2-(11-cyano-10-fluoro-6-oxo-5H-pyrido[2,3-d][1]benzazepin-7-yl)-N-[4-(trifluoromethyl)-phenyl]acetamide]
IC50 (system Xc^− [1]): 39.8 to 100 nM | IC50 (system Xc^− [2]): 39.8 to 100 nM

N#Cc1cc2c(cc1F)-c1cccnc1CC(=O)N2CC(=O)Nc1ccc(C(F)(F)F)cc1 [#69, 2-(9-cyano-10-fluoro-6-oxo-5H-pyrido[2,3-d][1]benzazepin-7-yl)-N-[4-(trifluoromethyl)-phenyl]acetamide]
IC50 (system Xc^− [1]): 15.8 to 39.8 nM | IC50 (system Xc^− [2]): 39.8 to 100 nM

Cc1cc2c(cn1)-c1ccc(C)nc1CC(=O)N2CC(=O)Nc1ccc(C(F)(F)F)cc1 [#71, 2-(5,13-dimethyl-9-oxo-4,8,12-triazatricyclo[9.4.0.0^2,7]pentadeca-1(11),2(7),3,5,12,14-hexaen-8-yl)-N-[4-(trifluoromethyl)phenyl]acetamide]
IC50 (system Xc^− [1]): 100 to 501 nM | IC50 (system Xc^− [2]): 100 to 501 nM

CCc1nc(C)cc2c1-c1ccccc1CC(=O)N2CC(=O)Nc1ccc(C(F)(F)F)cc1 [#72, 2-(1-ethyl-3-methyl-6-oxo-7H-pyrido[4,3-d][3]benzazepin-5-yl)-N-[4-(trifluoromethyl)phenyl]acetamide]
IC50 (system Xc^− [1]): 15.8 to 39.8 nM | IC50 (system Xc^− [2]): 39.8 to 100 nM

Cc1cc2c(c(C3CC3)n1)-c1ccccc1CC(=O)N2CC(=O)Nc1ccc(C(F)(F)F)cc1 [#73, 2-(1-cyclopropyl-3-methyl-6-oxo-7H-pyrido[4,3-d][3]benzazepin-5-yl)-N-[4-(trifluoromethyl)phenyl]acetamide]
IC50 (system Xc^− [1]): 100 to 501 nM | IC50 (system Xc^− [2]): 100 to 501 nM

COc1nc(C)cc2c1-c1cnnn1CC(=O)N2CC(=O)Nc1ccc(C(F)(F)F)cc1 [#74, 2-(14-methoxy-12-methyl-8-oxo-4,5,6,9,13-pentazatricyclo[8.4.0.0^2,6]tetradeca-1(1),2,4,11,13-pentaen-9-yl)-N-[4-(trifluoromethyl)phenyl]acetamide]
IC50 (system Xc^− [1]): 100 to 501 nM | IC50 (system Xc^− [2]): 100 to 501 nM

COc1nc(C)cc2c1-c1cccnc1CC(=O)N2CC(=O)Nc1ccc(C(F)(F)F)cc1 [#75, 2-(3-methoxy-5-methyl-9-oxo-4,8,12-triazatricyclo[9.4.0.0^2,7]pentadeca-1(11),2,4,6,12,14-hexaen-8-yl)-N-[4-(trifluoromethyl)phenyl]acetamide]
IC50 (system Xc^− [1]): 15.8 to 39.8 nM | IC50 (system Xc^− [2]): 15.8 to 39.8 nM

Cc1cc2c(c(O)n1)-c1cccnc1CC(=O)N2CC(=O)Nc1ccc(C(F)(F)F)cc1 [#76, 2-(3-hydroxy-5-methyl-9-oxo-4,8,12-triazatricyclo[9.4.0.0^2,7]pentadeca-1(11),2(7),3,5,12,14-hexaen-8-yl)-N-[4-(trifluoromethyl)phenyl]acetamide]
IC50 (system Xc^− [1]): 100 to 501 nM | IC50 (system Xc^− [2]): 100 to 501 nM

COc1nc(C)cc2c1-c1cccnc1CC(=O)N2CC(=O)Nc1ccc(C#N)cc1 [#77, N-(4-cyanophenyl)-2-(3-methoxy-5-methyl-9-oxo-4,8,12-triazatricyclo [9.4.0.0^2,7]pentadeca-1(11),2,4,6,12,14-hexaen-8-yl)acetamide]
IC50 (system Xc^− [1]): 100 to 501 nM | IC50 (system Xc^− [2]): 39.8 to 100 nM

O=C(CN1C(=O)Cc2ncccc2-c2c(F)cncc21)Nc1ccc(C(F)(F)F)cc1 [#78, 2-(3-fluoro-9-oxo-5,8,12-triazatricyclo[9.4.0.0^2,7]pentadeca-1(11),2(7),3,5,12,14-hexaen-8-yl)-N-[4-(trifluoromethyl)-phenyl]acetamide]
IC50 (system Xc^− [1]): 100 to 501 nM | IC50 (system Xc^− [2]): 100 to 501 nM

COc1nc(C)cc2c1-c1cccnc1CC(=O)N2CC(=O)Nc1ccc(C(F)(F)F)nc1 [#79, 2-(3-methoxy-5-methyl-9-oxo-4,8,12-triazatri-cyclo[9.4.0.0^2,7]penta-deca-1(11),2,4,6,12,14-hexaen-8-yl)-N-[6-(tri-fluoromethyl)-3-pyridyl] acetamide]
IC50 (system Xc^− [1]): 100 to 501 nM | IC50 (system Xc^− [2]): 100 to 501 nM

COc1nc(C)cc2c1-c1cccnc1CC(=O)N2CC(=O)Nc1ccc(C2CC2)cc1 [#80, N-(4-cyclopropylphen-yl)-2-(3-methoxy-5-methyl-9-oxo-4,8,12-triazatricyclo[9.4.0.0^2.7]pentadeca-1(11),2(7),3,5,12,14-hexaen-8-yl)-acetamide]
IC50 (system Xc^− [1]): 15.8 to 39.8 nM | IC50 (system Xc^− [2]): 15.8 to 39.8 nM

COc1nc(C)cc2c1-c1cccnc1C(C)C(=O)N2CC(=O)Nc1ccc(C(F)(F)F)cc1 (stereo not shown) [#81, 2-(3-methoxy-5,10-dimethyl-9-oxo-4,8,12-triazatricyclo[9.4.0.0^2,7]pentadeca-1(11),2,4,6, 12,14-hexaen-8-yl)-N-[4-(trifluoromethyl)-phenyl]acetamide]
IC50 (system Xc^− [1]): < 15.8 nM | IC50 (system Xc^− [2]): 15.8 to 39.8 nM

CCOc1nc(C)cc2c1-c1cccnc1CC(=O)N2CC(=O)Nc1ccc(C(F)(F)F)cc1 [#82, 2-(3-ethoxy-5-methyl-9-oxo-4,8,12-triazatri-cyclo[9.4.0.0^2,7]penta-deca-1(15),2(7),3,5,11, 13-hexaen-8-yl)-N-[4-(trifluoromethyl)phenyl] acetamide]
IC50 (system Xc^− [1]): 39.8 to 100 nM | IC50 (system Xc^− [2]): 100 to 501 nM
